Assay results reported in patent US11466006B2, “Dual selective PI3 delta and gamma kinase inhibitors” (Rhizen Pharmaceuticals SA, priority 2013, dated 2022).

Key:
Pi3K α = biological target: T1, Pi3K α (Homo sapiens, UniProt P42336); test: Fluorescent (HTRF) determination of PI3 kinase enzyme activity, alpha isoform; format: biochemical; settings: Table 1, HTRF
T1 construct: purchased Millipore (assay kit)
Excerpt: Phosphoinositide 3 kinases (PI3K) belong to a class of lipid kinases that play a critical role in the regulation of several key cellular processes. The PI3K are capable of phosphorylating the 3-hydroxy position of phosphoinositols thereby generating second messengers involved in downstream signalling events. The homogenous time resolved fluorescence (HTRF) assay allows detection of 3,4,5-triphosphate (PIP3) formed as a result of phosphorylation of phosphotidylinositol 4,5-biphosphate (PIP2) by PI3K isoforms such as α, β, γ or δ.
PI3K isoform activity for α, β, γ or δ was determined using a PI3K human HTRF™ Assay Kit (Millipore, Billerica, Mass.) with modifications. All incubations were carried out at room temperature. Briefly, 0.5 μl of 40× inhibitor (in 100% DMSO) or 100% DMSO were added to each well of a 384-well white plate (Greiner Bio-One, Monroe, N.C.) containing 14.5 μl 1× reaction buffer /PIP2 (10 mM MgCl2, 5 mM DTT, 1.38 μM PIP2) mix with or without enzyme, followed by 5 μl/well of 400 μM ATP and incubated for an additional 30 minutes. Reaction was terminated by adding 5 μl/well stop solution (Millipore, Billerica, Mass.). […] HRTF ratio was measured on a microplate reader (BMG Labtech., Germany) at an excitation wavelength of 337 nm and emission wavelengths of 665 and 615 nm with an integration time of 400 msec counting delay of 50 msec.

pAKT [1] = test: Inhibition of AKT phosphorylation in leukemic cell lines (Western blot); format: cell-based; settings: MOLT-4, Jurkat, CCRF-CEM, Hut-78 & HuT-102; 48 h; read-out: EC50, reduction in pAKT expression
Protocol: MOLT-4, Jurkat, CCRF-CEM, Hut-78, HuT-102, Sez4 and HH cells were incubated with desired concentrations of compound for 48 h. Cells were lysed and pAKT determined by Western Blotting. Bands were quantified using ImageJ and normalized to actin.

PI3K beta = biological target: T2, PI3K beta (Mus musculus, UniProt Q8BTI9); test: LPA induced AktS473 phosphorylation in 3T3 fibroblasts (PI3Kβ selectivity); format: cell-based; settings: read-out: Cellular IC50 PI3K beta (LPA induced pAKT in 3T3 fibroblasts)
T2 construct: 3T3 cells were treated with desired concentrations of the test compound for 15 min; endogenous in cells; host or cells: 3T3 fibroblasts
T2 sequence (Q8BTI9 whole entry): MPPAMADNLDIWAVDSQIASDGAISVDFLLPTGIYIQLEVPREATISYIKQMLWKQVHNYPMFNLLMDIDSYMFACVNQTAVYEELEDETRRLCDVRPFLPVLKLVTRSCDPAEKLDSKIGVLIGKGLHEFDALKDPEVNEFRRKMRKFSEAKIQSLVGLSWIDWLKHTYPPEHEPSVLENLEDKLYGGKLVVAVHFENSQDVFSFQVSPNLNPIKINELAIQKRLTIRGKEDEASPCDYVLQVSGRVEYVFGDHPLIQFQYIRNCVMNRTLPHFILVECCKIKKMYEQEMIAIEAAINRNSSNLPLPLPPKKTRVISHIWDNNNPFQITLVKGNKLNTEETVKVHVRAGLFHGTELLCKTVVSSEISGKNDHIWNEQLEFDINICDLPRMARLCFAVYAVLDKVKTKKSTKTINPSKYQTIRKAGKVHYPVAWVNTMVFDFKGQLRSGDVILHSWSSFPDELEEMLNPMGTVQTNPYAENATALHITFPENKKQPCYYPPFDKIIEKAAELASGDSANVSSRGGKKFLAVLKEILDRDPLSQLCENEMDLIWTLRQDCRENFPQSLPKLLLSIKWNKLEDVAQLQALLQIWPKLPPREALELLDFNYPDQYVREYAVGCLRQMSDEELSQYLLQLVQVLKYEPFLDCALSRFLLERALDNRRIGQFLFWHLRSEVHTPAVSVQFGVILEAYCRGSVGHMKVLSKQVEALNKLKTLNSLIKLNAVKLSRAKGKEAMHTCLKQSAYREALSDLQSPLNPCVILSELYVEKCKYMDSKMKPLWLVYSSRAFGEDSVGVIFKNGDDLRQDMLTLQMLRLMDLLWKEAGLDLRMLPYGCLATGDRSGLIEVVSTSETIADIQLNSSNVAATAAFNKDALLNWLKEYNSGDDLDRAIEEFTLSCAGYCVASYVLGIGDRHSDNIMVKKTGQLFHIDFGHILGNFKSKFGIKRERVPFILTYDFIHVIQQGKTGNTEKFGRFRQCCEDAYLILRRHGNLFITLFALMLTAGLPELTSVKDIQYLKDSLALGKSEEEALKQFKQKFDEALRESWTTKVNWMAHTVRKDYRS
T2 sequence (P26450 whole entry partner): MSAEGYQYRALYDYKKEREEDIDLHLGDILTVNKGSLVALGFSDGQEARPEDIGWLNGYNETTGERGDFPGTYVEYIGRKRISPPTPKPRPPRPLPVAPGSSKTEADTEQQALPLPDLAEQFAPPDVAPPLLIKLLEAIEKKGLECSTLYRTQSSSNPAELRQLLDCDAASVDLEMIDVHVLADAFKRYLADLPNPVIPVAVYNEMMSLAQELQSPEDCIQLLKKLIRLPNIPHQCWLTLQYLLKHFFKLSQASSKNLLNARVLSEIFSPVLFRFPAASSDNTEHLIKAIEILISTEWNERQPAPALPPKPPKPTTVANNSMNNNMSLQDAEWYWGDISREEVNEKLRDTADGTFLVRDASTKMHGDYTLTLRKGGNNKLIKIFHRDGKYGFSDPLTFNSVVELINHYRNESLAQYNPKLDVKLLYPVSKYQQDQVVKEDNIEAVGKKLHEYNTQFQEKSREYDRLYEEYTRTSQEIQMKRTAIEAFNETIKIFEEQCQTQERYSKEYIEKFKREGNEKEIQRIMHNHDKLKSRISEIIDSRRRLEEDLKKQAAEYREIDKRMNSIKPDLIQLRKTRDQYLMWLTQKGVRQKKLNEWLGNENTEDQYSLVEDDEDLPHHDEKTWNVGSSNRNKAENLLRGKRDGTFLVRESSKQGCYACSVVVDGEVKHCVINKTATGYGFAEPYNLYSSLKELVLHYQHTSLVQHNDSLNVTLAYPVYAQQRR

[2] = tested on: primary cells derived from B-cell lymphomas; test: Anticancer activity in patient derived B-lymphoma cells (Annexin V/PI); format: cell-based; settings: 4 μM, 48-h incubation
Protocol: Primary cells from lymphoid tumors were exposed to the test compound [Compound A1] to assess the induction of cell death. Cells were derived from diffuse large B-cell lymphoma (DLBCL), mantle cell lymphoma (MCL), splenic marginal zone lymphoma (SMZL), extranodal marginal zone lymphoma (EMZL), or chronic lymphocytic leukemia (CLL, no.=1). Cells were treated with desired concentrations of the compound and apoptosis (Annexin V/PI) was assessed by flow-cytometry after a 48-h incubation period.

pAKT [3] = test: Inhibition of AKT phosphorylation in B-lymphoma cell lines; format: cell-based; settings: LY-1, LY-10, Daudi, JEKO, REC and MAVER cells; 48 hours
Protocol: LY-1, LY-10, Daudi, JEKO, REC and MAVER cells were incubated with desired concentrations of [compound A1] for 48 hours. Cells were lysed and pAKT was determined by Western Blotting. Bands were quantified using ImageJ and normalized to actin.

Female Wistar rats = test: Lipopolysaccharide-induced rat air pouch model of inflammation; format: in vivo; settings: Neutrophil, oral, 1 h before LPS, pouch fluid at 6 h, read-out: ED50, reduction of neutrophil migration into the rat air pouch
Protocol: Female Wistar rats (175-200 g) were acclimatized for seven days prior to the start of the experiment Animals were randomly distributed to various groups based on their body weights Animals were anaesthetised with ether and subcutaneous air pouches were made by injecting 20 ml of sterile air under the skin in the intra-scapular area (day 0) and maintained with a second 10-ml injection of sterile-filtered air on day 4. On day 6, oral treatment was commenced 1 h prior to induction of inflammation by s.c. injection of LPS solution on day 6. A volume of 5-ml of LPS solution dissolved in sterile saline (100 μg/kg) was injected into each pouch. Samples of pouch fluid were taken at 6 h after administration of LPS by flushing the pouch with 5 ml of sterile saline and withdrawing 4 ml of fluid. The numbers of leukocytes present in pouch fluid was determined microscopically using a haemocytometer. Differential cell content was determined by microscopic examination of fluid smears stained with Diff-Quik.

[4] = tested on: ovalbumin sensitized mice; test: Murine asthma model (ovalbumin sensitized mice); format: in vivo, mouse; settings: 3 mg/kg oral
Excerpt: Airway inflammation and hyper-responsiveness (AHR) are hallmarks and distinguishing features of bronchial asthma. Provocation of pre-sensitized mice with the same allergen induces airway inflammation with preferential eosinophilic infiltration and, as a consequence, AHR. Pulmonary eosinophilia and airway remodelling in conjunction with altered neural control of airway tone and airway epithelial desquamation may contribute to AHR in asthma. After the quarantine period, based on their body weights, mice were randomized and divided into four groups (n=7). Tails were marked with an indelible marking pen for identification. On day 0, weights were recorded and animals were sensitized with 100 μg of Ovalbumin and 10 mg of alum solution (0.2 mL) intraperitoneally. On day 7 and day 14, the above sensitization protocol was repeated. […] On day 24, 25, and 26, after the treatment with test compound by oral gavage, 30 mins later animals were exposed to 10% w/v Ovalbumin challenge. […] Forty eight hours after last OVA challenge, airway hyperresponsiveness was measured by whole body plethysmograph against cumulative doses of methacholine challenge (2.5, 10, 50 and 100 mg/ml), after measuring the airway response, blood samples and BAL fluid was collected. Samples were analysed for total cell count by using neubuear chamber under microscope and differential leukocyte count was done manually.

Lewis rats = test: Collagen induced arthritis in Lewis rats; format: in vivo, rat

T1 sequence (P42336 whole entry, canonical isoform): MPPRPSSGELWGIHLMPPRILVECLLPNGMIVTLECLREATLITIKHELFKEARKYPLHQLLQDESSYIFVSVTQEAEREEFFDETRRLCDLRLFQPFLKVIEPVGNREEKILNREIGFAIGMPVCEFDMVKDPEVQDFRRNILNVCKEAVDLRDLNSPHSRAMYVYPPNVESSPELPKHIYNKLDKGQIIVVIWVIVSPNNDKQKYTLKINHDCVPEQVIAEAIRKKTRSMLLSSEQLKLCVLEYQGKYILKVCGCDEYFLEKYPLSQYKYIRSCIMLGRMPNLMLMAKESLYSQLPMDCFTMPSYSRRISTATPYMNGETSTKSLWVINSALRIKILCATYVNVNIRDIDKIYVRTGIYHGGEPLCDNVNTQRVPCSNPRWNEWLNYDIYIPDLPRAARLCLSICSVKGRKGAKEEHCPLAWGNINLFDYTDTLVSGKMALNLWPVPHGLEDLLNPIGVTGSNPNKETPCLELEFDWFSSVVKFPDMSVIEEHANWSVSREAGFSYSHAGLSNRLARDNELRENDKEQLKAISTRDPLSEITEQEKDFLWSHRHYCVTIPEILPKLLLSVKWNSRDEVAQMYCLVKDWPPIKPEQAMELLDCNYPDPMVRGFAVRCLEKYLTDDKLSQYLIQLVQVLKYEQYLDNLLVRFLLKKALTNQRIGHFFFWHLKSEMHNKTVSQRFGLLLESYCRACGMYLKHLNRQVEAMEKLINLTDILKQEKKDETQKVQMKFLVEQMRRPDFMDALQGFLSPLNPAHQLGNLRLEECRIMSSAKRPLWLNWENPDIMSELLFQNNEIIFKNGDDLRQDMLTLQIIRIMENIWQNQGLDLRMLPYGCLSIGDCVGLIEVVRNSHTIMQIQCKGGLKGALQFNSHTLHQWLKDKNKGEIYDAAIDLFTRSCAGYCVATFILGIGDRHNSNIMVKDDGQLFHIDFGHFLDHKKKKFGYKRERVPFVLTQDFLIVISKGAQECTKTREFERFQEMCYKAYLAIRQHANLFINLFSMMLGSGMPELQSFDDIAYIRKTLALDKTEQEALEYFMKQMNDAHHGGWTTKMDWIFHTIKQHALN
T1 sequence (P27986 whole entry partner, canonical isoform): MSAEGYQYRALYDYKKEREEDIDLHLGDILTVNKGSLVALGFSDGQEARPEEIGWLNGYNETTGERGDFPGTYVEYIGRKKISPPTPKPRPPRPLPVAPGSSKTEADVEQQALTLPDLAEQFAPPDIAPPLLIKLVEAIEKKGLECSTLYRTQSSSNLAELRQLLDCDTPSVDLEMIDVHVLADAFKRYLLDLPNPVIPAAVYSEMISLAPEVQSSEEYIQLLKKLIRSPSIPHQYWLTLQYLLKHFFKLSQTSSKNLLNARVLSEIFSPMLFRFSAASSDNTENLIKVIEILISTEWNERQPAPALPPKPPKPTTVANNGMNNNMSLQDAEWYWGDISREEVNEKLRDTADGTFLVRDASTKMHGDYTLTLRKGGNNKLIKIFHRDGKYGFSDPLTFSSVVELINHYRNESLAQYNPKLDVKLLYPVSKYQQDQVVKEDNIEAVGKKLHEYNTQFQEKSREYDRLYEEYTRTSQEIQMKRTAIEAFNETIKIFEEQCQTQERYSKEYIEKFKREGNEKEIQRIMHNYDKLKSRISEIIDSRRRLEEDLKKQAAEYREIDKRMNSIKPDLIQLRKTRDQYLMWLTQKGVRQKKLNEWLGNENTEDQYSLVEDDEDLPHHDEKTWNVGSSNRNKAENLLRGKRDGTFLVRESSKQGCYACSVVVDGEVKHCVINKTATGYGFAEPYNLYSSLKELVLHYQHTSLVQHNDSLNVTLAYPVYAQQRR

CC[C@H](Nc1ncnc2[nH]cnc12)c1oc2ccccc2c(=O)c1-c1cccc(F)c1 [Compound A1, (S)-2-(1-(9H-purin-6-ylamino)propyl)-3-(3-fluorophenyl)-4H-chromen-4-one]
IC50 (Pi3K α): > 10000 nM
EC50 (pAKT [1]): 0.5 to 2 µM
IC50 (PI3K beta): 2.07 µM
cell death (apoptosis, Annexin V/PI) [2]: increase in cell death
EC50 (pAKT [3]): 0.02 to 0.2 µM
ED50 (Female Wistar rats): 2.6 mg/kg
airway hyperresponsiveness against methacholine challenge [4]: significant reduction
eosinophil infiltration into the bronchoalveolar lavage fluid [4]: significant inhibition
histological analysis of joints at study end (Lewis rats; 15 mg/kg): complete structural preservation
individual and summed histopathological scores for knee and ankle (Lewis rats; 15 mg/kg/BID): significant reduction
reduction of knee and ankle swelling (Lewis rats; rat CIA model, dosed therapeutically, oral): significant efficacy
